Laboratory results from PMC11995724, “Antibiotic target discovery by integrated phenotypic and activity-based profiling of electrophilic fragments” (Cell chemical biology, 2025).
Structures can show the parent of a compound that is named as a salt.

Assay: in vitro
Details: human, hek293t cells

Row | Compound | viability at 48 h, 25 µM [%]
1 | CC(Cl)C(=O)N1CCN(C(=O)c2ccc3ccccc3c2)CC1 (stereo not drawn) [7-E07, 2-chloro-1-[4-(naphthalene-2-carbonyl)piperazin-1-yl]propan-1-one] | 96.2
2 | COc1ccc2ccccc2c1-c1cc(CNC(=O)C(C)Cl)on1 (stereo not drawn) [7-E08, 2-chloro-N-{[3-(2-methoxynaphthalen-1-yl)-1,2-oxazol-5-yl]methyl}propanamide] | 87.9
3 | Cc1csc(CN(CC2CCCO2)C(=O)C(C)Cl)n1 (stereo not drawn) [7-E09, 2-chloro-N-[(4-methyl-1,3-thiazol-2-yl)methyl]-N-[(oxolan-2-yl)methyl]propanamide] | 94.1
4 | Cc1noc(C23CC(CN2C(=O)C(C)Cl)C3)n1 (stereo not drawn) [7-E10, 2-chloro-1-[1-(3-methyl-1,2,4-oxadiazol-5-yl)-2-azabicyclo[2.1.1]hexan-2-yl]propan-1-one] | 93.2
5 | CC(Cl)C(=O)N1CCn2cccc2C1c1ccccc1 (stereo not drawn) [7-E11, 2-chloro-1-{1-phenyl-1H,2H,3H,4H-pyrrolo[1,2-a]pyrazin-2-yl}propan-1-one] | 97.1
6 | CC(Cl)C(=O)NC(Cc1ccccc1)c1ncco1 (stereo not drawn) [7-E12, 2-chloro-N-[1-(1,3-oxazol-2-yl)-2-phenylethyl]propanamide] | 84.4
7 | CC(Cl)C(=O)NC1CCN(CC(=O)Nc2ccccc2)CC1 (stereo not drawn) [7-E13, 2-chloro-N-{1-[(phenylcarbamoyl)methyl]piperidin-4-yl}propanamide] | 85.2
8 | CC(Cl)C(=O)N(Cc1cccs1)[C@@H]1C=C[C@H](CO)C1 (stereo partly drawn) [7-E14, 2-chloro-N-[(1S,4R)-4-(hydroxymethyl)cyclopent-2-en-1-yl]-N-[(thiophen-2-yl)methyl]propanamide] | 87.9
9 | CC(Cl)C(=O)NC(C)(C)c1cccc(Cl)c1F (stereo not drawn) [7-E15, 2-chloro-N-[2-(3-chloro-2-fluorophenyl)propan-2-yl]propanamide] | 91.2
10 | CC(Cl)C(=O)NC1c2cc(F)ccc2CC1C (stereo not drawn) [7-E16, 2-chloro-N-(6-fluoro-2-methyl-2,3-dihydro-1H-inden-1-yl)propanamide] | 74.7
11 | CC(Cl)C(=O)NCCC1(C)OCCO1 (stereo not drawn) [7-E17, 2-chloro-N-[2-(2-methyl-1,3-dioxolan-2-yl)ethyl]propanamide] | 82.4
12 | CC(Cl)C(=O)N1CCC(N(C)Cc2cc(=O)[nH]c(N(C)C)n2)C1 (stereo not drawn) [7-E18, 6-({[1-(2-chloropropanoyl)pyrrolidin-3-yl](methyl)amino}methyl)-2-(dimethylamino)-3,4-dihydropyrimidin-4-one] | 72.3
13 | CC(Cl)C(=O)N1CCCC1Cc1cccc(F)c1F (stereo not drawn) [7-E19, 2-chloro-1-{2-[(2,3-difluorophenyl)methyl]pyrrolidin-1-yl}propan-1-one] | 61.3
14 | CC(Cl)C(=O)N1CCN(C(=O)Cc2cccc(Cl)c2)C(C)C1 (stereo not drawn) [7-E20, 2-chloro-1-{4-[2-(3-chlorophenyl)acetyl]-3-methylpiperazin-1-yl}propan-1-one] | 65.1
15 | CC(Cl)C(=O)NCCNC(=O)c1ccoc1 (stereo not drawn) [7-E21, 2-chloro-N-{2-[(furan-3-yl)formamido]ethyl}propanamide] | 90.5
16 | CC1CN(C(=O)c2ccc(NC(=O)C(C)Cl)cc2)CC(C)O1 (stereo not drawn) [7-E22, 2-chloro-N-[4-(2,6-dimethylmorpholine-4-carbonyl)phenyl]propanamide] | 79.1
17 | O=C(CCl)NC(c1ccccc1)C1CC1c1ccncc1 (stereo not drawn) [7-F03, 2-chloro-N-{phenyl[2-(pyridin-4-yl)cyclopropyl]methyl}acetamide hydrochloride] | 0.921
18 | Cc1cccc(Cl)c1CCCNC(=O)CCl [7-F04, 2-chloro-N-[3-(2-chloro-6-methylphenyl)propyl]acetamide] | 0.614
19 | CC(Cl)C(=O)NCCN(C)S(=O)(=O)c1cccs1 (stereo not drawn) [7-F05, 2-chloro-N-[2-(N-methylthiophene-2-sulfonamido)ethyl]propanamide] | 97.9
20 | CC(CO)(Cc1ccc(F)cc1)NC(=O)CCl (stereo not drawn) [7-F06, 2-chloro-N-{2-[(4-fluorophenyl)methyl]-1-hydroxypropan-2-yl}acetamide] | 3.71
21 | CCC1CN(CCn2cccn2)CCN1C(=O)C(C)Cl (stereo not drawn) [7-F07, 2-chloro-1-{2-ethyl-4-[2-(1H-pyrazol-1-yl)ethyl]piperazin-1-yl}propan-1-one] | 98.7
22 | Cc1nc(C(NC(=O)CCl)c2ccccc2)no1 (stereo not drawn) [7-F08, 2-chloro-N-[(5-methyl-1,2,4-oxadiazol-3-yl)(phenyl)methyl]acetamide] | 1.04
23 | CC(Cl)C(=O)NCCc1nc(C2CCCCC2)cs1 (stereo not drawn) [7-F09, 2-chloro-N-[2-(4-cyclohexyl-1,3-thiazol-2-yl)ethyl]propanamide] | 84.8
24 | O=C(CCl)NC1COc2ncccc21 (stereo not drawn) [7-F10, 2-chloro-N-{2H,3H-furo[2,3-b]pyridin-3-yl}acetamide] | 53.7
25 | CC(Cl)C(=O)N1Cc2ccccc2OCC1C (stereo not drawn) [7-F11, 2-chloro-1-(3-methyl-2,3,4,5-tetrahydro-1,4-benzoxazepin-4-yl)propan-1-one] | 86.6
26 | Cc1nc2n(n1)CCCC2NC(=O)CCl (stereo not drawn) [7-F12, 2-chloro-N-{2-methyl-5H,6H,7H,8H-[1,2,4]triazolo[1,5-a]pyridin-8-yl}acetamide] | 58.1

Row | Compound | viability at 48 h, 25 µM [%]
27 | CC(Cl)C(=O)N1CCN(Cc2cnn(-c3ccccc3)c2)CC1 (stereo not drawn) [7-F13, 2-chloro-1-{4-[(1-phenyl-1H-pyrazol-4-yl)methyl]piperazin-1-yl}propan-1-one] | 93
28 | CC(c1ccc(C(F)(F)F)c(Cl)c1)N(C)C(=O)CCl (stereo not drawn) [7-F14, 2-chloro-N-{1-[3-chloro-4-(trifluoromethyl)phenyl]ethyl}-N-methylacetamide] | 0.626
29 | Cc1cc(C)n(C2CN(C(=O)C(C)Cl)C2)n1 (stereo not drawn) [7-F15, 2-chloro-1-[3-(3,5-dimethyl-1H-pyrazol-1-yl)azetidin-1-yl]propan-1-one] | 85.3
30 | C[C@@H](NC(=O)CCl)c1cnnn1C [7-F16, 2-chloro-N-[(1R)-1-(1-methyl-1H-1,2,3-triazol-5-yl)ethyl]acetamide] | 44.8
31 | CC(Cl)C(=O)NC1CCCCC1n1cccn1 (stereo not drawn) [7-F17, 2-chloro-N-[2-(1H-pyrazol-1-yl)cyclohexyl]propanamide] | 97.9
32 | Cc1ccc(C)n1C1CCC(NC(=O)CCl)CC1 (stereo not drawn) [7-F18, 2-chloro-N-[4-(2,5-dimethyl-1H-pyrrol-1-yl)cyclohexyl]acetamide] | 106
33 | CC(Cl)C(=O)N1CCCC1c1nc(N(C)C)no1 (stereo not drawn) [7-F19, 2-chloro-1-{2-[3-(dimethylamino)-1,2,4-oxadiazol-5-yl]pyrrolidin-1-yl}propan-1-one] | 77.6
34 | O=C(CCl)NC1CCCc2c1cnn2Cc1ccccc1 (stereo not drawn) [7-F20, N-(1-benzyl-4,5,6,7-tetrahydro-1H-indazol-4-yl)-2-chloroacetamide] | 0.873
35 | Cc1nn(C)c(NC(=O)C(C)Cl)c1-c1ccccc1 (stereo not drawn) [7-F21, 2-chloro-N-(1,3-dimethyl-4-phenyl-1H-pyrazol-5-yl)propanamide] | 84.5
36 | O=C(CCl)NC(c1cc(F)ccc1F)C(F)F (stereo not drawn) [7-F22, 2-chloro-N-[1-(2,5-difluorophenyl)-2,2-difluoroethyl]acetamide] | 0.697
37 | CNC(=O)c1cc(OC2CCN(C(=O)C(C)Cl)C2)ccn1 (stereo not drawn) [7-G03, 4-{[1-(2-chloropropanoyl)pyrrolidin-3-yl]oxy}-N-methylpyridine-2-carboxamide] | 111
38 | Cc1noc(C2CN(C(=O)C(C)Cl)C2)n1 (stereo not drawn) [7-G04, 2-chloro-1-[3-(3-methyl-1,2,4-oxadiazol-5-yl)azetidin-1-yl]propan-1-one] | 92.2
39 | CC(Cl)C(=O)N1CC(S(=O)(=O)Nc2ccccc2)C1 (stereo not drawn) [7-G05, 1-(2-chloropropanoyl)-N-phenylazetidine-3-sulfonamide] | 102
40 | CC(Cl)C(=O)N1CCCN2c3ccccc3CC2C1 (stereo not drawn) [7-G06, 1-{1H,2H,3H,4H,5H,11H,11aH-[1,4]diazepino[1,2-a]indol-2-yl}-2-chloropropan-1-one] | 96.3
41 | CCOc1cccc(N2CCN(C(=O)C(C)Cl)CC2)n1 (stereo not drawn) [7-G07, 2-chloro-1-[4-(6-ethoxypyridin-2-yl)piperazin-1-yl]propan-1-one] | 83.5
42 | CCn1cc(C2CN(C(=O)C(C)Cl)CCO2)cn1 (stereo not drawn) [7-G08, 2-chloro-1-[2-(1-ethyl-1H-pyrazol-4-yl)morpholin-4-yl]propan-1-one] | 89.1
43 | CC(Cl)C(=O)NC(C)c1ccc(C(F)(F)F)nc1Cl (stereo not drawn) [7-G09, 2-chloro-N-{1-[2-chloro-6-(trifluoromethyl)pyridin-3-yl]ethyl}propanamide] | 83.5
44 | CC(Cl)C(=O)N1CCN(c2nccc3sccc23)CC1 (stereo not drawn) [7-G10, 2-chloro-1-(4-{thieno[3,2-c]pyridin-4-yl}piperazin-1-yl)propan-1-one] | 83.5
45 | CC(Cl)C(=O)N(Cc1ccsc1)C1CC1 (stereo not drawn) [7-G11, 2-chloro-N-cyclopropyl-N-[(thiophen-3-yl)methyl]propanamide] | 86.9
46 | CC1CCCN(C(=O)C(NC(=O)C(C)Cl)c2cnn(C)c2)C1 (stereo not drawn) [7-G12, 2-chloro-N-[1-(1-methyl-1H-pyrazol-4-yl)-2-(3-methylpiperidin-1-yl)-2-oxoethyl]propanamide] | 81.1
47 | CC(Cl)C(=O)NC1CCCc2c1cnn2Cc1ccccc1 (stereo not drawn) [7-G13, N-(1-benzyl-4,5,6,7-tetrahydro-1H-indazol-4-yl)-2-chloropropanamide] | 87.2
48 | CC(Cl)C(=O)N(c1ccccc1)C1CCOC1 (stereo not drawn) [7-G14, 2-chloro-N-(oxolan-3-yl)-N-phenylpropanamide] | 64.4
49 | CC(Cl)C(=O)NCC(c1ccccc1)c1nnc[nH]1 (stereo not drawn) [7-G15, 2-chloro-N-[2-phenyl-2-(4H-1,2,4-triazol-3-yl)ethyl]propanamide] | 114
50 | CC(Cl)C(=O)NCC(NS(=O)(=O)N(C)C)C1CCCC1 (stereo not drawn) [7-G16, 2-chloro-N-{2-cyclopentyl-2-[(dimethylsulfamoyl)amino]ethyl}propanamide] | 91.3
51 | CC(Cl)C(=O)NCCc1nnnn1-c1ccccc1 (stereo not drawn) [7-G17, 2-chloro-N-[2-(1-phenyl-1H-1,2,3,4-tetrazol-5-yl)ethyl]propanamide] | 92.2
